From US6946458B2, “N-thiolated beta-lactams: novel antibacterial agents for methicillin-resistant Staphylococcus aureus” (University of South Florida, priority 1999, dated 2005)
≈ marks a conversion by molar mass, not a printed value. Entries after “also recorded” stand apart in the source; their conditions may differ.

Legend:
S. simulans (ATCC 11631) = assay: Kirby-Bauer agar disk diffusion; type: cell-based, Staphylococcus simulans; details: Table 1; 6-mm disks, 20 μg test compound, 24 h, triplicate
Method in brief: (§1)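 Agar disk diffusion used 6-mm air-dried disks carrying 20 μg of compound. Values are mean diameters (mm) of the growth-inhibition zone at 24 h, from triplicate experiments. S. epidermidis and S. simulans were clinical isolates.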

N. gonorrhoeae = assay: Kirby-Bauer agar disk diffusion; type: cell-based, Neisseria gonorrhoeae; details: Table 1; 6-mm disks, 20 μg test compound, 24 h, triplicate; β-lactamase positive
Method: In this study, a selection of N-methylthio-substituted β-lactams are examined for antimicrobial activity by the Kirby-Bauer disk diffusion method on agar plates. A variety of common Gram-positive and Gram-negative bacteria are tested, including clinical isolates of methicillin-resistant Staphylococcus aureus (MRSA).
Compound susceptibility measurements are obtained from agar disk diffusion experiments using 6-mm air-dried disks impregnated with 20 μg of the test compound. The values correspond to the average diameters in mm (triplicate experiments) for the zone of growth inhibition observed after 24 h. Staphylococcus aureus (ATCC 25923) and β-lactamase-producing strains of methicillin-resistant Staphylococcus aureus (labeled as MRSA USF652-659) are obtained from Lakeland Regional Medical Center, Lakeland, Fla. Staphylococcus epidermidis, Staphylococcus simulans, Staphylococcus simulans, and Microcossus luteus are clinical isolates from University of South Florida Medical Clinic. Nieserria gonnorhoeae (β-lactamase positive) is obtained from the Tampa Branch State Laboratory. PenG is penicillin G (potassium salt). Table 1 provides the zones of growth inhibition that are observed after 24 hours using the lactams of FIGS. 1A-1I (designated A-I, respectively).

Staphylococcus aureus = assay: MIC by agar dilution; type: cell-based
Description: (§2) However, the N-alkylthio substituent is required, since reduction to the N—H analogue completely destroys the biological activity.

[1] = test system: S. saprophyticus (ATCC 3552); assay: Kirby-Bauer agar disk diffusion; type: cell-based, Staphylococcus saprophyticus; details: Table 1; 6-mm disks, 20 μg test compound, 24 h, triplicate
Method in brief: as §1

MRSA USF652 = assay: Kirby-Bauer agar disk diffusion; type: cell-based, Staphylococcus aureus; details: Table 1; 6-mm disks, 20 μg test compound, 24 h, triplicate
Method in brief: (§3)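 6-mm disks, 20 μg compound each, air-dried, on agar seeded with β-lactamase-positive MRSA isolate; inhibition zone diameter in mm at 24 h, average of triplicates.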

MRSA USF658 = assay: Kirby-Bauer agar disk diffusion; type: cell-based, Staphylococcus aureus; details: Table 1; 6-mm disks, 20 μg test compound, 24 h, triplicate
Method in brief: as §3

MRSA USF653 = assay: Kirby-Bauer agar disk diffusion; type: cell-based, Staphylococcus aureus; details: Table 1; 6-mm disks, 20 μg test compound, 24 h, triplicate
Method in brief: as §3

MRSA USF656 = assay: Kirby-Bauer agar disk diffusion; type: cell-based, Staphylococcus aureus; details: Table 1; 6-mm disks, 20 μg test compound, 24 h, triplicate
Method in brief: as §3

MRSA USF659 = assay: Kirby-Bauer agar disk diffusion; type: cell-based, Staphylococcus aureus; details: Table 1; 6-mm disks, 20 μg test compound, 24 h, triplicate
Method in brief: as §3

MRSA USF654 = assay: Kirby-Bauer agar disk diffusion; type: cell-based, Staphylococcus aureus; details: Table 1; 6-mm disks, 20 μg test compound, 24 h, triplicate
Method in brief: as §3

MRSA USF655 = assay: Kirby-Bauer agar disk diffusion; type: cell-based, Staphylococcus aureus; details: Table 1; 6-mm disks, 20 μg test compound, 24 h, triplicate
Method in brief: as §3

MRSA USF657 = assay: Kirby-Bauer agar disk diffusion; type: cell-based, Staphylococcus aureus; details: Table 1; 6-mm disks, 20 μg test compound, 24 h, triplicate
Method in brief: as §3

Micrococcus luteus = assay: Kirby-Bauer agar disk diffusion; type: cell-based; details: Table 1; 6-mm disks, 20 μg test compound, 24 h, triplicate
Method in brief: as §1

[2] = test system: Staphylococcus epidermidis; assay: Kirby-Bauer agar disk diffusion; type: cell-based; details: Table 1; 6-mm disks, 20 μg test compound, 24 h, triplicate
Method in brief: as §1

[3] = test system: Staphylococcus aureus (ATCC 25923); assay: Kirby-Bauer agar disk diffusion; type: cell-based; details: Table 1; 6-mm disks, 20 μg test compound, 24 h, triplicate
Method in brief: as §1

[4] = test system: bacterial uptake of ^3H-uridine and ^3H-leucine; assay: pulse radiolabeling experiments; type: cell-based; details: at low (MIC) levels
Description: (§4) In fact, only small isolated colonies of surviving cells can be found, all of which appear perfectly normal in size, shape, smoothness, and clustering behavior. […] Pulse radiolabeling experiments indicate that the lactam of FIG. 1D blocks the bacterial uptake of ^3H-uridine and ^3H-leucine at low (MIC) levels (Lim, D. V. et al. Microbiology, 1977, 33:328; Champney, W. S. and C. G. Tober Antimicrob. Agents and Chemother., 2000, 44:1413).

MRSA cells = assay: light microscopy after Gram staining; type: cell-based, Staphylococcus aureus; details: Example 1
Description: as §4
(FIGS. 14A-14C) S. aureus is a Gram-positive microorganism, and thus reacts with Gram stain to produce a purple coloration due to binding of the stain to the peptidoglycan. 100% of MRSA cells grown either in the absence or presence of the lactam of FIG. 11F take on a purple color when Gram stained (top and center images, next page). In contrast, for MRSA cells treated with penicillin G or vancomycin (cell wall synthesis inhibitors), only about 30% of the cells are Gram-stained purple, with the remainder of the cells appearing pink (bottom image, next page) due to morphologically altered walls. This is strong evidence that the N-methylthio lactams are not affecting late stage events in cell wall biosynthesis.

[5] = test system: cultures of S. aureus and MRSA; assay: electron microscopy of cell morphology; type: cell-based, Staphylococcus aureus; details: Example 1; electron microscopy, high magnification; listed as FIG. 1D
Description: The structure-bioactivity patterns observed for these N-thiolated lactams are highly atypical for a β-lactam antibiotic. The compounds are lipohilic and devoid of the typical acidic ring functionality required for recognition by the penicillin binding proteins. The implication that the lactams set forth in FIGS. 1A-1I are not acting in the same manner or on the same enzymes as the traditional β-lactam drugs is supported by electron microscopy experiments, which confirm that cell morphology is unaffected by the lactam of FIG. 1D (Greenwood, D. et al. Science, 1969, 163:1076).
as §4
Light microscopy and scanning electron microscopy experiments have enabled us to look for cell wall damage in cultures of S. aureus and MRSA grown in the presence of N-methylthio lactam (FIG. 11F) over a range of different concentrations and cell growth conditions. […] Those cells that survive the treatment appear normal (coccal) and fully mature.

MRSA strains = assay: MIC by agar dilution; type: cell-based, Staphylococcus aureus
Description: as §2

In the case of `COC1C(=O)N(SC)C1c1ccccc1Cl` (racemic) [Lactam D], the “zone of growth inhibition, average diameter” value (shortened to “zone of growth inhibition”) (S. simulans (ATCC 11631)) is reported as 16 mm, the “zone of growth inhibition” value (N. gonorrhoeae) is reported as 19 mm and the “Minimum inhibitory concentration (MIC)” value (Staphylococcus aureus) is reported as 15 µg/mL (≈ 58.2 µM). The “zone of growth inhibition” value [1] was 20 mm, the “zone of growth inhibition” value (MRSA USF652) was 30 mm and the “zone of growth inhibition” value (MRSA USF658) was 27 mm. The “zone of growth inhibition” value (MRSA USF653) was 30 mm, the “zone of growth inhibition” value (MRSA USF656) was 28 mm and the “zone of growth inhibition” value (MRSA USF659) was 24 mm. The “zone of growth inhibition” value (MRSA USF654) was 26 mm, the “zone of growth inhibition” value (MRSA USF655) was 26 mm and the “zone of growth inhibition” value (MRSA USF657) was 28 mm. The “zone of growth inhibition” value (Micrococcus luteus) was 24 mm, the “zone of growth inhibition” value [2] was 29 mm and the “zone of growth inhibition” value [3] was 26 mm. For the same compound, the “bacterial uptake of ^3H-leucine” value [4] was “blocks”, the “bacterial uptake of ^3H-uridine” value [4] was “blocks” and the “coloration upon Gram staining” value (MRSA cells) was “uniform purple coloration”. For the same compound, the cell morphology [5] was “unaffected; also recorded: no visible damage or morphological deformities” and the “Minimum inhibitory concentration (MIC)” value (MRSA strains) was 5 to 10 µg/mL.
